Measurements: PMC9737981, “Molecular Hybridization Strategy on the Design, Synthesis, and Structural Characterization of Ferrocene-N-acyl Hydrazones as Immunomodulatory Agents” (Molecules, 2022)

Tests used:
[1] = Cytotoxicity to J774 macrophages (Alamar Blue); assay type: cell-based; conditions: mouse, read-out: CC50 (µM) JJ74
Description: (§1) J774 macrophages were seeded into 96-well plates at a cell density of 1 × 10^4 cells/well in a DMEM medium supplemented with 10% fetal bovine serum (FBS; GIBCO) and 50 µg/mL of gentamicin (Life Technologies, Carlsbad, CA, USA) and incubated for 24 h at 37 °C and 5% CO2. After that time, each compound was added in six concentrations (50–1.56 µM), in triplicate, and incubated for 72 h. At the end of treatment, 20 µL/well of Alamar Blue (Invitrogen) was added to the plates for 4 h. […]
(§2) As a positive control, gentian violet was used at concentrations ranging from 0.04 to 10 µM. CC50 values were calculated using data from three independent experiments.
(§3) To determine the cytotoxicity concentration of 50% of J774 macrophages (CC50), we used non-linear regression. One-way analysis of variance and Newman–Keuls multiple comparison tests were employed by using Graph Pad Prism version 8.0.1 (Graph Pad Software; San Diego, CA, USA). Differences were considered significant when the values of p were < 0.05. The data are representative of at least two or three experiments.

[2] = Acute toxicity in mice (single oral dose); assay type: in vivo, BALB/c mice; conditions: for Changes in the eyes / Changes in the fur / Changes in the skin / Coma / Convulsions / Diarrhea / Lethargy / Salivation / Sleep / Tremors: observed daily for 14 days; for Mortality or signs of toxicity: 2 weeks
Description: Male BALB/c mice (6–8 weeks of age; n = 6/group) were randomized into three groups and treated orally with a single dose of SintMed150 (50 or 100 mg/kg) or vehicle (solution containing 30% sorbitol, 10 % Tween 80, and 60% saline). Animals were monitored for signs of general toxicity for 2 weeks after treatment. Observations involved changes in eyes, fur, and skin, and the occurrence of tremors, salivation, convulsions, diarrhea, sleep, lethargy, and coma. Body weights were taken and recorded at days 0, 7, and 14.

[3] = test system: IL-1β; test: IL-1β production by peritoneal macrophages stimulated with LPS + IFN-γ (ELISA); assay type: cell-based, BALB/c mice; conditions: 10, 20 and 40 µM, 24 h, p < 0.05
Description: (§4) Immortalized J774 macrophages (2 × 10^5 cells/well) or peritoneal macrophages (2 × 10^5 cells/well) were incubated in 96-well plates in a DMEM medium supplemented with 10% FBS and 50 µg/mL of gentamicin, in triplicate, stimulated or not with LPS (500 ng/mL) and IFN-γ (5 ng/mL), and treated or not with different concentrations of the evaluated ferrocenyl-N-acyl hydrazones. The cells were incubated for 4 or 24 h at 37 °C and 5% CO2. Cell-free supernatants were collected after 4 h (for TNFα measurement) and 24 h (for IL-1β, TNFα, and nitrite quantifications), and kept at −80 °C until use.
(§5) The dosage of cytokines IFN-γ, IL-1β, IL-2, IL-4, and TNFα was performed from the supernatant of peritoneal macrophages or splenocytes were determined by enzyme-linked immunosorbent assay (ELISA), using DuoSet kits from R&D Systems, according to the manufacturer’s instructions. Nitric oxide production was estimated in macrophage culture supernatants harvested at 24 h using the Griess method for nitrite quantification.

[4] = test system: nitrite production; test: Nitrite production by activated peritoneal macrophages (Griess); assay type: cell-based, BALB/c mice; conditions: 10, 20 and 40 µM; LPS + IFN-γ; p < 0.05
Description: as §4, §5

[5] = test system: J774 macrophages; test: Cytotoxicity to J774 macrophages (Alamar Blue); assay type: cell-based; conditions: 72 h, read-out: CC50 (µM) JJ74
Description: as §1, §2, §3

[6] = test system: peritoneal macrophages; test: Cytotoxicity to peritoneal macrophages activated with LPS + IFNγ (Alamar Blue); assay type: cell-based, BALB/c mice; conditions: all concentrations tested (10, 20, 40 µM)
Description: The second set of experiments was performed using peritoneal macrophages activated with LPS (500 ng/mL, Sigma-Aldrich) and IFNγ (5 ng/mL; Sigma-Aldrich).
Peritoneal exudate macrophages were obtained by washing, with a cold DMEM medium, the peritoneal cavity of BALB/c mice 4–5 days after injection of 3% thioglycolate (Sigma-Aldrich) in saline (1.5 mL per mouse). Cells were seeded into 96-well plates at a cell density of 1 × 10^5 cells/well in a DMEM medium supplemented with 10% FBS and 50 µg/mL of gentamicin and incubated for 24 h at 37 °C and 5% CO2. […] At the end of treatment, 20 µL/well of Alamar Blue (Invitrogen) were added to the plates for 10 h. Colorimetric readings were performed at 570 and 600 nm using a SpectraMax 190 Microplate Reader (Molecular Devices, Sunnyvale, CA, USA).

[7] = test system: IFN-γ; test: IFN-γ production by splenocytes stimulated with concanavalin A (ELISA); assay type: cell-based, BALB/c mice; conditions: 10, 20, 40 µM; Con A 5 µg/mL; 24 h
Description: (§6) BALB/c splenocyte suspensions were prepared in a DMEM medium supplemented with FBS and gentamicin. Splenocytes (5 × 10^6 cells/well) were plated in 24-well plates, in triplicate, and stimulated or not with concanavalin A (Con A; 5 µg/mL, Sigma-Aldrich). To evaluate lymphocyte function, splenocytes were activated in the absence or presence of various concentrations of SintMed149 and SintMed150 (10, 20, and 40 µM). After 24 h of treatment, cell-free supernatants were collected and kept at −80 °C until use.
as §5

[8] = test system: IL-2; test: IL-2 production by splenocytes stimulated with concanavalin A (ELISA); assay type: cell-based, BALB/c mice; conditions: 10, 20, 40 µM; Con A 5 µg/mL; 24 h
Description: as §6, §5

[9] = test system: TNFα; test: TNFα production by peritoneal macrophages stimulated with LPS + IFN-γ (ELISA); assay type: cell-based, BALB/c mice; conditions: 10, 20 and 40 µM, 4 h, p < 0.05
Description: as §4, §5

[10] = test system: carrageenan-induced acute peritonitis; test: Carrageenan-induced acute peritonitis (neutrophil migration); assay type: in vivo, BALB/c mice; conditions: 100 mg/kg orally 24 and 1 h before carrageenan; compared to vehicle
Description: Next, animals were challenged with a 250 μL injection of carrageenan (1 mg/mL; intraperitoneal route). After 4 h, animals were euthanized and peritoneal exudates were harvested by peritoneal lavage using 2.5 mL of saline solution. Cells were centrifuged at 400× g for 10 min, at 4 °C. The pellet was resuspended in saline (1 mL). Total leukocytes in the peritoneal fluid were determined in a Neubauer chamber after dilution in Trypan blue stain. Differential counting of neutrophils was carried out in rapid panotype-stained cytospin preparations. A differential count of 300 cells was made in a blinded fashion and according to standard morphologic criteria.

[11] = test system: IL-4; test: IL-4 production by splenocytes stimulated with concanavalin A (ELISA); assay type: cell-based, BALB/c mice; conditions: 10, 20, 40 µM; Con A 5 µg/mL; 24 h
Description: as §6, §5

[12] = test system: LPS-induced endotoxic shock; test: LPS-induced endotoxin shock (survival); assay type: in vivo, BALB/c mice
Description: Groups of five male BALB/c mice (4 weeks of age) were used for the LPS lethality assays. Mice were treated with different doses of SintMed150 (50 or 100 mg/kg), dexamethasone (25 mg/kg), or vehicle (solution containing 30% sorbitol, 10% Tween 80, and 60% saline), by intraperitoneal (i.p.) route. Ninety minutes later, animals were challenged with 600 µg of LPS (from serotype 0111:B4 Escherichia coli, Sigma-Aldrich) in saline, by i.p. route. The survival rate was then monitored daily during 4 days.

[13] = test system: nitric oxide production; test: Inhibition of nitric oxide (nitrite) production in J774 macrophages stimulated with LPS + IFN-γ (Griess); assay type: cell-based; conditions: 24 h incubation with compounds and LPS plus IFN-γ
Description: as §4, §5

CN(C)c1ccc(C(=C2C=CC(=[N+](C)C)C=C2)c2ccc(N(C)C)cc2)cc1 [GV, gentian violet, reference compound]
CC50 at 72 h [1]: 0.8 µM

O=C(N/N=C/[c-]1cccc1)c1ccccc1Oc1ccccc1.[Fe+2].c1cc[cH-]c1 [SintMed150, (E)-N′-(Ferrocenylmethylidene)-2-phenoxybenzohydrazide]
Changes in the eyes ([2]; 50 mg/kg single oral dose): No changes | Changes in the fur ([2]; 50 mg/kg single oral dose): No changes | Changes in the skin ([2]; 50 mg/kg single oral dose): No changes | Coma ([2]; 50 mg/kg single oral dose): Absent | Convulsions ([2]; 50 mg/kg single oral dose): Absent | Diarrhea ([2]; 50 mg/kg single oral dose): Absent | Lethargy ([2]; 50 mg/kg single oral dose): Absent | Salivation ([2]; 50 mg/kg single oral dose): Absent | Sleep ([2]; 50 mg/kg single oral dose): Usual | Tremors ([2]; 50 mg/kg single oral dose): Absent | Body weight ([2]; 50 mg/kg, day 0): 20.9 (±1.1) | Body weight ([2]; 50 mg/kg, day 7): 21.1 (±1.1) | Body weight ([2]; 50 mg/kg, day 14): 21.7 (±0.9) | Changes in the eyes ([2]; 100 mg/kg single oral dose): No changes | Changes in the fur ([2]; 100 mg/kg single oral dose): No changes | Changes in the skin ([2]; 100 mg/kg single oral dose): No changes | Coma ([2]; 100 mg/kg single oral dose): Absent | Convulsions ([2]; 100 mg/kg single oral dose): Absent | Diarrhea ([2]; 100 mg/kg single oral dose): Absent | Lethargy ([2]; 100 mg/kg single oral dose): Absent | Salivation ([2]; 100 mg/kg single oral dose): Absent | Sleep ([2]; 100 mg/kg single oral dose): Usual | Tremors ([2]; 100 mg/kg single oral dose): Absent | Body weight ([2]; 100 mg/kg, day 0): 20.1 (±0.8) | Body weight ([2]; 100 mg/kg, day 7): 20.4 (±0.7) | Body weight ([2]; 100 mg/kg, day 14): 21.0 (±0.7) | Mortality or signs of toxicity ([2]; single oral dose 50 mg/kg): did not cause mortality or the appearance of any sign of toxicity | Mortality or signs of toxicity ([2]; single oral dose 100 mg/kg): did not cause mortality or the appearance of any sign of toxicity | Body weight compared to vehicle-treated mice ([2]; single oral dose 50 or 100 mg/kg): no difference in body weight | IL-1β production [3]: inhibitory effect | Nitrite production [4]: inhibited, in a concentration-dependent manner | CC50 [5]: > 50 µM | Cytotoxicity (cell viability) in peritoneal macrophages [6]: not cytotoxic | IFN-γ levels [7]: performed the same feat | IL-2 levels [8]: significant and concentration-dependent reduction | TNF production [9]: inhibitory effect | Reduction in neutrophil migration [10]: 44.6% | IL-4 levels [11]: did not significantly reduce | Survival ([12]; 50 mg/kg, third day after lethal LPS): already died | Survival ([12]; 100 mg/kg, fourth day after lethal LPS, p < 0.05): 20% | Survival time in comparison with the vehicle group ([12]; 50 or 100 mg/kg, lethal LPS): longer survival time | Inhibition of NO (%) Production at 40 μM [13]: 74.2 (±0.7) %
